Experimental data reported in patent US20200315996A1 (Board of Trustees, Southern Illinois University, priority 2016, published 2020).

What was measured:
[1] = test system: female mice; assay: Effect of oral niclosamide on reproductive function (Study 2); format: in vivo
Method: The sham surgery was performed following the same steps as the endometriosis surgery except that no donor tissues were implanted onto the peritoneal walls of those mice; only sutures were applied to the peritoneal walls.
The recipient mice continued receiving oral daily niclosamide treatments until mouse pups were born, after which niclosamide treatment was discontinued. Three weeks after the pups were born, on postnatal day (PND) 21, the recipient mice were necropsied and the pups were weaned.
For each mated mouse, the following parameters were measured and recorded: the time of the formation of the vaginal plug after mating (days); the length of time that the mated mouse gestated or was pregnant (days); the number of pups born to each mated mouse; and the size and volume of the endometriotic lesions harvested from the mice after necropsy. Tissues were harvested from the mice, including endometriotic lesions and peritoneal walls to analyze the expression of proteins and genes of interest.
For each pup born to a mated mouse, its weight (g) at birth and on PND 21 was measured.

[2] = test system: NOS2 (iNOS); assay: Immunohistochemistry of endometriotic lesions, NOS2; format: in vivo, mice; settings: 3 weeks; for % of NOS2 positive cells/total cells/0.007 mm^2, Stroma: control 75.2 ± 4.6
Description: (§1) The presence and location of different proteins in the tissues obtained from the recipient mice. Samples of uterine tissue were isolated from the recipient mice, fixed by standard histological methods, and embedded in paraffin. Thin sections (5 μm) of the paraffin-embedded tissues were screened with standard immunohistochemical methods using antibodies to identify the expression of in the uterine tissues. […] The expression of MKI67, ESR1, PGR, p-CHUK, p-STAT3, NOS2 and PTGS2 proteins in uterine tissues, as determined by immunohistochemical analysis of uterine tissue sections, was semiquantitatively analyzed. Levels of apoptosis were analyzed by TUNEL assay and also semiquantitatively analyzed. […] Histological sections were obtained from 4 different lesions. For each section, three different areas measuring 0.007 mm^2 were chosen. In each of those areas, the total number of epithelial or stromal cells was counted, as was the number of cells that tested positive for expressing MKI67 (a marker of cellular proliferation), steroid receptors ESR1 and PGR, and inflammatory signaling molecules p-CHUK, p-STAT3, NOS2 and PTGS2 proteins.

[3] = test system: p-CHUK (IKK); assay: Immunohistochemistry of endometriotic lesions, p-CHUK; format: in vivo, mice; settings: 3 weeks
Description: as §1

SMILES: O=C(Nc1ccc([N+](=O)[O-])cc1Cl)c1cc(Cl)ccc1O [niclosamide, 5-chloro-N-(2-chloro-4-nitrophenyl)-2-hydroxybenzamide]
- time to receive vaginal plug, between the groups ([1]; 0 or 200 mg/kg b.w./day oral, mated after 4 days of treatment): No significant differences
- pregnancy and birth in recipient mice exposed to niclosamide ([1]; 200 mg/kg b.w./day oral until pups were born): became pregnant and gave birth
- gestational length, number of pups, and weight of pups at birth and on PND21 ([1]; 200 mg/kg b.w./day oral until pups were born vs 0): did not cause any differences
- % of NOS2 positive cells/total cells/0.007 mm^2, Stroma ([2]; 100 mg/kg b.w./day oral): 57.8 ± 4.3%
- % of NOS2 positive cells/total cells/0.007 mm^2, Epithelium ([2]; 100 mg/kg b.w./day oral, control 99.5 ± 0.4): 99.5 ± 0.5%
- % of NOS2 positive cells/total cells/0.007 mm^2, Stroma ([2]; 200 mg/kg b.w./day oral): 61.9 ± 5.7%
- % of NOS2 positive cells/total cells/0.007 mm^2, Epithelium ([2]; 200 mg/kg b.w./day oral, control 99.5 ± 0.4, p < 0.05): 86.2 ± 5.9 %
- % of p-CHUK positive cells/total cells/0.007 mm^2, Stroma ([3]; 100 mg/kg b.w./day oral, control 83.4 ± 4.7): 86.3 ± 4.0%
- % of p-CHUK positive cells/total cells/0.007 mm^2, Epithelium ([3]; 100 mg/kg b.w./day oral, control 97.9 ± 2.1): 92.3 ± 3.8%
- % of p-CHUK positive cells/total cells/0.007 mm^2, Stroma ([3]; 200 mg/kg b.w./day oral, control 83.4 ± 4.7, p < 0.01): 56.2 ± 8.3 %
- % of p-CHUK positive cells/total cells/0.007 mm^2, Epithelium ([3]; 200 mg/kg b.w./day oral, control 97.9 ± 2.1, p < 0.05): 76.7 ± 9.2 %
